Legend:
[1] = hydrodynamic radius of micelles by dynamic light scattering (DLS); format: physicochemical; conditions: compound at 1.0 wt %
Method: Methods of measuring the radius of micelles are not particularly limited, and methods widely known in the art may be used. For example, dynamic light scattering (DLS) may be used.
(§1) Specifically, critical micellar concentrations (CMCs) were measured using hydrophobic fluorescent staining and diphenylhexatriene (DPH), and the hydrodynamic radii (Rh) of micelles formed by each compound at a concentration of 1.0 wt % were measured using dynamic light scattering (DLS). The results were compared with results obtained from an existing amphipathic molecule (detergent), DDM, and are shown in Table 1.
When measuring, each of PSAs, PSEs and TPSs was used at a concentration of 1.0 wt %.

[2] = critical micelle concentration (CMC) by hydrophobic fluorescent staining with diphenylhexatriene (DPH); format: physicochemical
Description: Methods of measuring CMC are not particularly limited, and methods widely known in the art may be used. For example, a fluorescence staining method using diphenylhexatriene (DPH) may be used.
To characterize PSAs of Preparation Examples 1 to 3 synthesized according to the synthetic method of Example 1; PSEs of Preparation Examples 4 to 7 synthesized according to the synthetic method of Example 2; TPS-Es and TPS-ELs of Preparation Examples 8 to 14 synthesized according to the synthetic method of Example 3; and TPS-As of Preparation Examples 15 to 17 synthesized according to the synthetic method of Example 4, the critical micellar concentrations (CMCs) of PSAs, PSEs and TPSs and the hydrodynamic radii (Rh) of formed micelles were measured.
as §1

[3] = molecular target: T1, boron transporter (BOR1) BOR1-GFP fusion protein (Arabidopsis thaliana, UniProt Q8VYR7); experiment: solubilization (extraction) of BOR1-GFP fusion protein from membranes; conditions: amphipathic compound at 1.0 wt %
T1 construct: made in house; host or cells: Saccharomyces cerevisiae FGY217
Method: The ability of PSAs and PSEs to solubilize membrane proteins and to stabilize the structures of membrane proteins was evaluated using boron transporter (BOR1), a membrane protein. BOR1 was isolated from Arabidopsis thaliana, and was expressed in the form of a fusion protein having a GFP tag at the C-terminus in Saccharomyces cerevisiae FGY217 cells. This fusion protein has been proven to have boron transporting activity and is therefore involved in both structural and functional analysis of membrane proteins.
The ability of amphipathic compound PSAs and PSEs to solubilize the boron transporter (BOR1) membrane protein was evaluated.
Specifically, membranes containing BOR1-GFP fusion proteins were treated with an existing amphipathic compound (DDM), PSAs (PSA-C9, PSA-C10 and PSA-C11), or PSEs (PSE-C9, PSE-C11 and PSE-C13) at a concentration of 1.0 wt %. The solubilization efficiencies of PSA-C9, PSA-C10 and PSE-C9 were about 80% similar to the solubilization efficiency of DDM. In particular, the BOR1-GFP protein was quantitatively extracted (˜100%) using PSE-C11 having medium length chains, thus confirming that PSE-C11 is particularly useful for solubilization of BOR1-GFP.
(§2) Specifically, Arabidopsis thaliana-derived BOR1 was expressed in the form of a fusion protein having a GFP tag at the C-terminus in Saccharomyces cerevisiae FGY217 cells. The cells were grown in an URA-medium supplemented with 0.1% glucose. 2% galactose was added to the cell culture to induce protein expression and the cells were cultured at 20° C. for 18 hours (see Drew, D. et al., Nat. Protoc. 2008, 3, 784-798.). After culture, the cells were harvested and used to obtain the cell membranes (see Leung, J. et al., Protein Expr. Purif. 2010, 72, 139-146.). Membranes containing BOR1-GFP fusion proteins were diluted to a final total protein concentration of 2.8 mg/mL in PBS (pH7.4) supplemented with 1 wt % DDM, 1 wt % PSAs (PSA-C9, PSA-C10 or PSA-C11) or 1 wt % PSEs (PSE-C9, PSE-C11 or PSE-C13). The diluted samples were incubated at 4° C. for 1 hour with gentle shaking, and insoluble substances were removed by centrifugation at 14,000 g for 1 hour at 4° C. Supernatants containing the dissolved protein samples were incubated for 10 minutes at the specified temperature (35, 40, 45 or 50° C.), and strongly agglutinated proteins were removed by centrifugation at 14,000 g for 10 minutes at 4° C. 200 μL aliquots were taken from the supernatant and injected into a Superose 6 10/300 column equilibrated with 20 mM Tris-HCl (pH 7.5), 150 mM NaCl and 0.03% DDM. Each elution fraction was collected from a retention volume of 6.4 mL (i.e., after 6.4 mL of solution had passed), and added to a well of a clear bottom 96-well plate at a volume of 200 μL. GFP fluorescence generated in each fraction was measured using an excitation wavelength of 470 nm and an emission wavelength of 512 nm.

[4] = molecular target: T1, boron transporter (BOR1) BOR1-GFP fusion protein; experiment: structural (thermal) stability of solubilized BOR1-GFP by fluorescence-based size exclusion chromatography (FSEC); conditions: heated at 40° C. for 10 minutes, 1 wt % compound
Method: The ability of PSAs or PSEs to stabilize the structure of boron transporter (BOR1) was measured in an aqueous solution. That is, the BOR1 protein solubilized in each amphipathic compound was denatured by heating, and then structural stability of BOR1 was measured using fluorescence-based size exclusion chromatography (FSEC).
as §2

[5] = molecular target: T2, Salmonella typhimurium melibiose permease (MelB) (Salmonella typhimurium, UniProt P30878); experiment: MelB extraction efficiency and thermal stability by SDS-PAGE and western immunoblotting; conditions: 1.5 wt %, 0° C., 90 minutes (similar results at 45° C.)
T2 construct: made in house; host or cells: DW2 cells (melB and lacZY), Salmonella typhimurium DW2; plasmid pK95AHB/WT MelBst/CH10
Method: The ability of PSAs or PSEs to extract (solubilize) MelBst (Salmonella typhimurium melibiose permease) proteins and stabilize the structures thereof was measured. MelB proteins were extracted using PSAs, PSEs or DDM, and the amount of the extracted proteins and structural stability thereof were quantitatively analyzed by SDS-PAGE and western immunoblotting. The protein extraction efficiency and thermally stabilizing ability of the amphipathic compounds were simultaneously evaluated by extracting MelB proteins at four temperatures (0, 45, 55 or 65° C.) for 90 minutes using the amphipathic compounds at a concentration of 1.5 wt %.
Specifically, according to the method described in the journal article (P. S. Chae, et al., Chemistry. 2013, 19, 15645-15651.) published by the present inventors, proteins (MelBst) were produced using a plasmid pK95AHB/WT MelBst/CH10 containing a gene construct encoding wild-type MelB having 10×His tags at the C-terminus and Salmonella typhimurium DW2 cells (melB and lacZY). According to the method described in the journal article (A. S. Ethayathulla et al., Nat. Commun. 2014, 5, 3009), cells were cultured and the cell membranes were obtained from the cultured cells. Protein analysis was performed using a Micro BCA kit (Thermo Scientific, Rockford, Ill.). To measure solubilization/stability, membrane samples (the final concentration of membrane proteins was 10 mg/mL) containing MelBst were mixed with a solubilization buffer solution (20 mM sodium phosphate, pH 7.5, 200 mM NaCl, 10% glycerol and 20 mM melibiose) containing DDM, PSAs (PSA-C11) or PSEs (PSE-C9, PSE-C11, PSE-C13) at a concentration of 1.5% (w/v). Extracts were incubated at four different temperatures (0, 45, 55 and 65° C.) for 90 minutes. Fractions were removed by ultracentrifugation at 355,590 g for 45 minutes using a Beckman Optima™ MAX ultracentrifuge equipped with a No. 4 TLA-100 rotor. 20 μg of proteins was separated using a 15% SDS-PAGE gel. Next, immunoblotting was performed using Penta-His-HRP antibodies (Qiagen, Germantown, Md.). After performing SDS-PAGE and immunoblotting, the amount of solubilized MelB was quantitated and expressed as a percentage of the amount of MelB measured in the control group.

T2 sequence (P30878 whole entry): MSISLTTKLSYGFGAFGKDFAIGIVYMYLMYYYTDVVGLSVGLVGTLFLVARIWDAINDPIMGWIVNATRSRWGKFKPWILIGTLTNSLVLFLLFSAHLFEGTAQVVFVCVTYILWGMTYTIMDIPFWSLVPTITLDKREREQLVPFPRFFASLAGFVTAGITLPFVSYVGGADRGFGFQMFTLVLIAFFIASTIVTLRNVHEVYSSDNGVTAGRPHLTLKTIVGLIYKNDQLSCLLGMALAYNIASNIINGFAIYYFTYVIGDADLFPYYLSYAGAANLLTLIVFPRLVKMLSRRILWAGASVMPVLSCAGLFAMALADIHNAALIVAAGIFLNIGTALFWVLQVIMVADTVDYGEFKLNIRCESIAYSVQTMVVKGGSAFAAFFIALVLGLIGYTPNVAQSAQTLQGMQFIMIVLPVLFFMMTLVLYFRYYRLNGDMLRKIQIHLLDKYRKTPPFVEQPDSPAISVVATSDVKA

Row | Rh (nm), hydrodynamic radius of micelles [1] [nm] | CMC [2] [mM] | CMC (wt %) [2] [wt %] | solubilization efficiency of BOR1-GFP [3] | Structure (SMILES) | structural stability of solubilized BOR1-GFP after heating (RFU, FSEC) [4] | MelB extraction efficiency [5]
1 | 2.94 ± 0.05 | ~0.014 | ~0.0016 | about 80% | CCCCCCCCCC(CCCCCCCCC)CO[C@@H]1OC(CO[C@@H]2OC(CO)[C@@H](O)C(O)C2O)[C@@H](O[C@@H]2OC(CO)[C@@H](O)C(O)C2O)C(O[C@@H]2OC(CO)[C@@H](O)C(O)C2O)C1O[C@@H]1OC(CO)[C@@H](O)C(O)C1O (stereo partly drawn) [PSA-C9] | – | –
2 | 3.10 ± 0.05 | ~0.009 | ~0.0010 | about 80% | CCCCCCCCCCC(CCCCCCCCCC)CO[C@@H]1OC(CO[C@@H]2OC(CO)[C@@H](O)C(O)C2O)[C@@H](O[C@@H]2OC(CO)[C@@H](O)C(O)C2O)C(O[C@@H]2OC(CO)[C@@H](O)C(O)C2O)C1O[C@@H]1OC(CO)[C@@H](O)C(O)C1O (stereo partly drawn) [PSA-C10] | remarkably improved as compared to DDM and PSA-C9 | –

Row | Structure (SMILES) | Rh (nm), hydrodynamic radius of micelles [1] [nm] | CMC [2] [mM] | CMC (wt %) [2] [wt %] | solubilization efficiency of BOR1-GFP [3] | structural stability of solubilized BOR1-GFP after heating (RFU, FSEC) [4] | MelB extraction efficiency [5]
3 | CCCCCCCCCOCC(COCCCCCCCCC)O[C@@H]1OC(CO[C@@H]2OC(CO)[C@@H](O)C(O)C2O)[C@@H](O[C@@H]2OC(CO)[C@@H](O)C(O)C2O)C(O[C@@H]2OC(CO)[C@@H](O)C(O)C2O)C1O[C@@H]1OC(CO)[C@@H](O)C(O)C1O (stereo partly drawn) [PSE-C9] | 3.19 ± 0.04 | ~0.026 | ~0.0030 | about 80% | greatly improved compared to DDM | extracted at an efficiency similar to the efficiency observed in the case of DDM

From US20190169218A1, “AMPHIPATHIC COMPOUND HAVING NOVEL PENTA-SACCHARIDE HYDROPHILIC GROUP AND USE THEREOF” (Industry-University Cooperation Foundation Hanyang …, priority 2016, published 2019)
